This is an account of results in PMC11413451 (Frontiers in Cell and Developmental Biology, 2024).

The structures appear in SMILES notation. Like-named read-outs stand apart in the source and are kept apart here. A value given as a limit tells only on which side of the number the result lay.

The target of assay [1] is T1, human Slo3 (Homo sapiens, UniProt A8MYU2).
T1 construct: expressed in transfected cells; host or cells: CHO cells, transient co-transfection with pcDNA3.1(+) vectors
T1 sequence (A8MYU2 1-1149): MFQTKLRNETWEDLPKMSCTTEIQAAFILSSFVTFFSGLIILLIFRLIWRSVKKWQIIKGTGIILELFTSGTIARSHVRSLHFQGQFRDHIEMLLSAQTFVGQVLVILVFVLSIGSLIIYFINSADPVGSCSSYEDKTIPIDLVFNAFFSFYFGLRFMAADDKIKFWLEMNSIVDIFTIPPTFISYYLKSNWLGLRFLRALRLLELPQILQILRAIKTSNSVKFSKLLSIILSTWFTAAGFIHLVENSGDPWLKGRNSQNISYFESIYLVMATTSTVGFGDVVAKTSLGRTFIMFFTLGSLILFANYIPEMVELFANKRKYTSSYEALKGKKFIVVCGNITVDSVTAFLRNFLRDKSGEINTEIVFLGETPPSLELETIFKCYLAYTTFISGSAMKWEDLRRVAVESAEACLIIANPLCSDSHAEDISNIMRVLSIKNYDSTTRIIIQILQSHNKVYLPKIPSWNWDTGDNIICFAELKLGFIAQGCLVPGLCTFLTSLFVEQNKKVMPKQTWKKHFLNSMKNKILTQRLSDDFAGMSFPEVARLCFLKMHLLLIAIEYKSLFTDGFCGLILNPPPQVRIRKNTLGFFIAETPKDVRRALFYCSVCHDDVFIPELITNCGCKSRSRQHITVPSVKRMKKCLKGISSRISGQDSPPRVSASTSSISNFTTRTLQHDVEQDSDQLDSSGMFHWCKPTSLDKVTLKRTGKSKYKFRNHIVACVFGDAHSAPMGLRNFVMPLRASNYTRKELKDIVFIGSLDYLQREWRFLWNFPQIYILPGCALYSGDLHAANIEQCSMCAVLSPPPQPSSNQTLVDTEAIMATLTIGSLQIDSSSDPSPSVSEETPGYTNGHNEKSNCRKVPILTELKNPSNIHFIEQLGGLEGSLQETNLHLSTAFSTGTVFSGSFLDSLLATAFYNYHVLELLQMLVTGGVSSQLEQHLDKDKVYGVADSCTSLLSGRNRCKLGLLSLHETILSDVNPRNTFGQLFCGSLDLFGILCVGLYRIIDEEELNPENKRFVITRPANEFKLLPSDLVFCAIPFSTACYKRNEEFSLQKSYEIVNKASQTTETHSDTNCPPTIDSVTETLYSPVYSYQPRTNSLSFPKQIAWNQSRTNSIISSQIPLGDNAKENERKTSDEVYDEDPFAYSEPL
T1 sequence (Q8N7C0 24-313 partner): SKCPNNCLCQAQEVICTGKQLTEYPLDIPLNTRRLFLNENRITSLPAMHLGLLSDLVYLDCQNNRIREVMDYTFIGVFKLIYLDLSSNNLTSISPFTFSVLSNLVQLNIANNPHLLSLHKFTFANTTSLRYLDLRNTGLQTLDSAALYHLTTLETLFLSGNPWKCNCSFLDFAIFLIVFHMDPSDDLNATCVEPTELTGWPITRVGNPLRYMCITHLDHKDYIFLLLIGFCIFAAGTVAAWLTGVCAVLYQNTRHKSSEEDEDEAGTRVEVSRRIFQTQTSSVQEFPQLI
Nature of the assay: Whole-cell patch-clamp of Slo3 currents in CHO cells co-expressing human Slo3 and LRRC52. Type of assay: cell-based.

The test system of assay [2] is CatSper. As to conditions: relative to progesterone; cited from earlier work.
Where [3] appears, read: dose-response, Hill fit, mean ± SD, read-out: IC50 for inhibition of Slo3.
Where [4] appears, read: 50 µM prostaglandin, n = 3, in range of current rundown.

Compound `C[C@]12CC[C@@H]3c4ccc(O)cc4CC[C@H]3[C@@H]1CC[C@@H]2O` [estradiol] yielded a 50% inhibitory concentration (IC50) in assay [1] of 8.9 ± 4.4 µM. Moreover, the “decrease of Slo3 current amplitude” value in assay [1] (50 μM steroid, +100 mV, n ≥ 3) is recorded as “significantly decreased”. Further, the “fold less potent than progesterone to activate CatSper” value in assay [2] is reported as “around 100 fold”. Regarding `CC(=O)[C@H]1CC[C@H]2[C@@H]3CCC4=CC(=O)CC[C@]4(C)[C@H]3CC[C@]12C` [progesterone], the “decrease of Slo3 current amplitude” value in assay [1] (50 μM steroid, +100 mV, n ≥ 3) is given as “significantly decreased”. Moreover, in assay [1] (setting [3]), the IC50 is 5.2 ± 2.9 µM. Consider `CCCCC/C=C\C/C=C\C/C=C\C/C=C\CCCC(=O)O` [arachidonic acid], for which the “effect on Slo3 currents” value in assay [1] (3 µM arachidonic acid, n = 7) was “did not affect”. Turning to `C[C@]12C[C@H](O)[C@H]3[C@@H](CCC4=CC(=O)CC[C@@]43C)[C@@H]1CC[C@@H]2C(=O)CO` [corticosterone], in assay [1] (50 μM steroid, +100 mV, n ≥ 3), the “decrease of Slo3 current amplitude” value is listed as “significantly decreased”. Moreover, the IC50 in assay [1] (setting [3]) worked out at 58 ± 11 µM.

For the compound `C[C@]12CC[C@H]3[C@@H](CC=C4C[C@@H](O)CC[C@@]43C)[C@@H]1CC[C@@H]2O` [androstenediol], the “decrease of Slo3 current amplitude” value in assay [1] (50 μM steroid, +100 mV, n ≥ 3) is reported as at most 18%. For `[Zn+2]` [Zn^2+], the “decrease of Slo3 current amplitude” value in assay [1] (1 mM Zn^2+, n = 4, in range of current rundown) is given as 14 ± 13%. Regarding `CCCCC[C@H](O)/C=C/[C@H]1[C@H](O)CC(=O)[C@@H]1CCCCCCC(=O)O` [PGE1, prostagladin E1], in assay [1] (setting [4]), the “decrease of Slo3 current amplitude” value is 18 ± 7%. The compound `C[C@]12CC[C@H]3[C@@H](CCC4=CC(=O)CC[C@@]43C)[C@@H]1CC[C@@H]2O` [testosterone] registered an IC50 in assay [1] of 17 ± 14 µM. Besides, the “decrease of Slo3 current amplitude” value in assay [1] (50 μM steroid, +100 mV, n ≥ 3) is reported as “significantly decreased”.

`CC(=O)[C@@]1(O)CC[C@H]2[C@@H]3CC=C4C[C@@H](O)CC[C@]4(C)[C@H]3CC[C@@]21C` [17α-hydroxypregnenolone]: the “decrease of Slo3 current amplitude” value in assay [1] (50 μM steroid, +100 mV, n ≥ 3) is on record as at most 18%. `CC(=O)C1(O)CCC2C3CCC4=CC(=O)CCC4(C)C3CCC21C` (stereo not drawn) [17α-hydroxyprogesterone]: the “decrease of Slo3 current amplitude” value in assay [1] (50 μM steroid, +100 mV, n ≥ 3) was “significantly decreased”. Besides, in assay [1] (setting [3]), the IC50 came out at 27 ± 10 µM. Regarding `C[C@]12CC[C@@H]3c4ccc(O)cc4CC[C@H]3[C@@H]1CCC2=O` [estrone], the “decrease of Slo3 current amplitude” value in assay [1] (50 μM steroid, +100 mV, n ≥ 3) is at most 18%.

For `CC(=O)[C@H]1CC[C@H]2[C@@H]3CC=C4C[C@@H](O)CC[C@]4(C)[C@H]3CC[C@]12C` [pregnenolone], the “decrease of Slo3 current amplitude” value in assay [1] (50 μM steroid, +100 mV, n ≥ 3) is at most 18%.

Turning to `C[C@]12CCC(=O)C=C1CC[C@@H]1[C@@H]2CC[C@]2(C)C(=O)CC[C@@H]12` [androstenedione], in assay [1] (50 μM steroid, +100 mV, n ≥ 3), the “decrease of Slo3 current amplitude” value is on record as at most 18%.

For `C[C@]12CC[C@H](O)CC1=CC[C@@H]1[C@@H]2CC[C@]2(C)C(=O)CC[C@@H]12` [DHEA, dehydroepiandrosterone], the half-inhibitory concentration (IC50) in assay [1] was determined as 41 ± 4 µM. In addition, the “decrease of Slo3 current amplitude” value in assay [1] (50 μM steroid, +100 mV, n ≥ 3) is listed as “significantly decreased”. Turning to `CCCCC[C@H](O)/C=C/[C@H]1[C@H](O)CC(=O)[C@@H]1C/C=C\CCCC(=O)O` [PGE2, prostaglandin E2], in assay [1] (setting [4]), the “decrease of Slo3 current amplitude” value was 7 ± 7%. Consider `C[C@]12CCC(=O)C=C1CC[C@@H]1[C@@H]2C(=O)C[C@@]2(C)[C@H]1CC[C@]2(O)C(=O)CO` [cortisone], for which the “decrease of Slo3 current amplitude” value in assay [1] (50 μM steroid, +100 mV, n ≥ 3) is listed as at most 18%.
